In one test the test system is dopamine 1 receptor. To be noted: allosteric modulator binding preferentially to ICL2; cited from earlier work. From the text: Positive allosteric binding sites of GPCRs have been identified in the past. However, recent studies have […] the potential of positive allosteric modulators in multiple GPCRs using in vitro and in silico approaches. Allosteric binding sites located near the extracellular (EC) face and IC face in different GPCRs have been documented. Allosteric sites near the orthosteric site in GPCRs often block the entry of other ligands. However, this would not be a problem for allosteric ligands that target the IC region. DETQ, an al ...

Test [1] concerns the target T1, AngII type 1 receptor (AT1R) (Homo sapiens, UniProt P30556).
T1 construct: host or cells: HEK293FT
T1 sequence (P30556 1-359): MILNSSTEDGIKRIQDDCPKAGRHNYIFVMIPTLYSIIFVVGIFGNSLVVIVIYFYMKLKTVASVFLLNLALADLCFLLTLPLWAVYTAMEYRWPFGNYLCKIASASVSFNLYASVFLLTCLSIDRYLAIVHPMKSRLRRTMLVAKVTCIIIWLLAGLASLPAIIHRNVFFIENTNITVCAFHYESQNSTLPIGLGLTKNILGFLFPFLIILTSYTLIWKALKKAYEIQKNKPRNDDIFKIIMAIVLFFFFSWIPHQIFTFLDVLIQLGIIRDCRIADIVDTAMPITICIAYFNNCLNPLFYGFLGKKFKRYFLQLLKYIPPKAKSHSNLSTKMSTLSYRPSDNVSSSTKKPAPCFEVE
Nature of the test: Saturation NanoBRET binding of BODIPY-AngII to Nluc-AT1R in live HEK293FT cells. The method, then: Figure 1 Saturation binding of BODIPY-angiotensin II (AngII) to AngII type 1 receptor (AT1R) using NanoBRET assay in live HEK293FT cells. HEK293FT cells transiently expressing Nluc-AT1R (NanoBRET donor) were first treated with 10 μM LVV-H7 or vehicle (A) or 1 μM olmesartan medoxomil or vehicle (B) for 20 min at 37 °C. […] Data are mean ± SEM of four (A) or three (B) independent experiments performed in duplicate.
(A) HEK293FT cells transiently expressing Nluc-AT1R (NanoBRET donor) were first treated with 1 μM olmesartan medoxomil or vehicle and then immediately treated with 0, 10, or 100 μM LVV-H7. […] Specific binding curves were generated by subtracting olmesartan medoxomil-treated wells from vehicle-treated wells for each concentration of LVV-H7.
(§1) The NanoLuc-AT1R coding plasmid (Promega, Madison, WI, USA) was used for its transient expression in HEK293FT cells as previously reported.
(§2) Human embryonic kidney (HEK) 293FT cells (Thermo Fisher Scientific) were cultured and maintained at 37 °C, 5% CO2 in complete medium (Dulbecco’s modified Eagle’s medium (DMEM) containing 0.3 mg/mL glutamine, 100 IU/mL penicillin, and 100 μg/mL streptomycin) supplemented with 10% fetal calf serum (FCS) (Bovogen Biologicals, Victoria, Australia) and 400 μg/mL Geneticin (Thermo Fisher Scientific). Transient transfections were carried out 24 h after seeding 600,000 cells/well of a 6-well plate. FuGENE 6 (Promega) transfection reagent was used according to the manufacturer’s instructions. Cells were harvested with 0.05% Trypsin-EDTA 24 h after transfection and seeded into poly-L-lysine (Sigma Aldrich) coated white 96-well plates (Greiner Bio-One, Frickenhausen, Germany) at 80,000 cells/well in phenol red-free DMEM containing 25 mM HEPES, 0.3 mg/mL glutamine, 100 IU/mL penicillin, and 100 μg/mL streptomycin supplemented with 5% FCS.
The NanoLuc substrate furimazine (Promega) was then added to a final concentration of 10 μM and light emission was measured at 37 °C using the filters 450 nm (80-nm bandpass) and >610 nm (longpass) on the LUMIstar or CLARIOstar multilabel plate reader (BMG Labtech (Australia), Mornington, VIC, Australia).
The NanoBRET ratios were determined by dividing the >610 nm (longpass) emission by 450 nm (80-nm bandpass) emission and subtracting the background ratio. Then, the percentage of NanoBRET signals were calculated as described in figure legends. The saturation and kinetic curves were fitted with the appropriate nonlinear regression equations using GraphPad Prism software (San Diego, CA, USA). Statistical analyses were performed with paired one-way ANOVA or paired t-tests as appropriate to determine statistical significance between the different conditions. **** p-value < 0.0001, *** p-value < 0.001, ** p-value < 0.01, * p-value < 0.05, and ns p-value > 0.05.

The target in test [2] is T1, AngII type 1 receptor (AT1R). The test is described as follows: Real-time NanoBRET kinetics of BODIPY-AngII binding to Nluc-AT1R in live HEK293FT cells. The note with it: 10 μM LVV-H7, 30 min pre-incubation, 100 nM BODIPY-AngII. As for the experimental part:
as §1, §2
The NanoBRET ratios were determined by dividing the >610 nm (longpass) emission by 450 nm (80-nm bandpass) emission and subtracting the background ratio. Then, the percentage of NanoBRET signals were calculated as described in figure legends. […]

The test system of the next test is AT1R. To be noted: HEK293 cells; Gαq/inositol phosphate pathway and ERK1/2 phosphorylation; cited from earlier work. The source says:
Hemorphins are endogenous hemoglobin-derived peptides implicated in numerous physiological and pathophysiological situations including spatial learning, inflammation, analgesia, and transient hypotension. The molecular targets of hemorphins comprise the cell-surface G protein-coupled receptor (GPCR) members such as the opioid receptors and also the membrane AngIV receptor [3, 8]. Moreover, hemorphins are also known for their inhibitory effects on the angiotensin-converting enzyme (ACE), a key enzyme in the renin–angiotensin system (RAS). ...

As to `C[C@H]1c2cccc(C(C)(C)O)c2C[C@H](CO)N1C(=O)Cc1c(Cl)cccc1Cl` [DETQ], the “effect on potency of dopamine” value with dopamine 1 receptor was “significantly enhanced the potency of dopamine”.
For the compound `CCCc1nc(C(C)(C)O)c(C(=O)OCc2oc(=O)oc2C)n1Cc1ccc(-c2ccccc2-c2nnn[nH]2)cc1` [olmesartan medoxomil, reference compound], the “displacement of BODIPY-AngII binding” value in test [1] (1 μM olmesartan medoxomil, 20 min at 37 °C before BODIPY-AngII 40 min, three independent experiments in duplicate) is ~ 75%.
Turning to “LVVYPWTQRF [LVV-H7, LVV-hemorphin-7, decapeptide LVV-hemorphin-7 ([…]) (New England Peptide)]”, the “effect on maximal binding of BODIPY-AngII (kinetics)” value in test [2] (n = 4, p < 0.05) is reported as “significantly increased the maximal binding of BODIPY-AngII”. Also, the “effect on binding rate (T1/2) of BODIPY-AngII” value in test [2] (n = 4, p > 0.05) was “no effect on the binding rate”. For the same compound, the “competition for binding with BODIPY-AngII” value in test [1] (10 μM LVV-H7, 20 min at 37 °C before BODIPY-AngII 40 min, four independent experiments in duplicate) was “did not compete for binding with BODIPY-AngII”. In addition, in test [1] (LVV-H7 0, 10, 100 μM, saturation binding, n = 6), the “effect on maximum binding (Bmax) of BODIPY-AngII” value is listed as “without altering the maximum binding”. Moreover, in test [1] (NanoBRET in HEK293FT cells, effect of LVV-H7), the “decrease of AngII's kD” value amounted to 2.6 fold. For the same compound, the “effect on binding of BODIPY-AngII” value in test [1] (increasing LVV-H7 (0, 10, 100 μM), n = 6) is “significantly potentiated the binding of BODIPY-AngII”. Also, the “modulation of AT1R activity and downstream signaling” value in the test on AT1R was “positive modulation of its activity and downstream signaling pathways in HEK293 cells”.

The record behind these values is PMC7795518, “Insights into the Interaction of LVV-Hemorphin-7 with Angiotensin II Type 1 Receptor” (International Journal of Molecular Sciences, 2020).
